The IC50 is the point on the concentration scale where inhibition reaches its midpoint. High values mean lower potency, low ones higher potency. The term CC50 denotes the concentration that lowers cell viability or growth by half. Lower therefore signals harm at low concentration.

In data set [1] the test system is A549 and H1975 cells. Description: Apoptosis assay, co-treatment with Proscillaridin A. Type of data set: cell-based. The method, then: (§1) A549, H1975 and HCC827 cells (1×10^5 cells /well) were seeded in a 6 -well plate for 24 h, and treated with the indicated concentrations of Proscillaridin A for an additional 24 h at 37° C. After indicated hours, the cells were washed by ice-cold 1×PBS once and harvested by trypsination. Then cell were centrifuged, collected and resuspended in ice-cold 1×PBS. After removing the supernatants, cell pellets were re-suspended in 100 μL 1× Annexin-binding buffer. The cells were then double-stained with Annexin-V FITC and PI (100 μg/mL) of 2 μL respectively for 15 min at room temperature in dark. After that, 300 μL 1× Annexin-binding buffer was added. Apoptotic cells were quantitatively counted by a BD Aria III Flow Cytometer (BD Biosciences, San Jose, Calif., USA).

The test system of data set [2] is A549 and H1975 cells. Description: Measurement of intracellular calcium (Fluo-3). Type of data set: cell-based. Conditions: A549 and H1975, after 6 h. The method, then:
Changes in intracellular free calcium were measured by a fluorescent dye, Fluo-3 as previously described. Briefly, A549 and H1975 cells were washed twice with culture media after Proscillaridin A treatment (6.25-25 nM) for 6 hours. Then cell suspensions were incubated with 5 μM Fluo-3 at 37° C. for 30 min. After the cells were washed twice with HBSS, the re-suspended cell samples were then subjected to FACS analysis. At least 10,000 events were analyzed.

For data set [3], the system named is A549 cells. Description: Apoptosis assay (Annexin-V/PI flow cytometry). Type of data set: cell-based. The method, then: as §1
For orientation: Flow cytometry measures light scatter and fluorescence of single cells or particles in a stream.

In data set [4] the test system is H1975 cells. Description: Apoptosis assay (Annexin-V/PI flow cytometry). Type of data set: cell-based. The method, then: as §1
Data set [5] deals with HCC827 cells. The data set is described as follows: Apoptosis assay (Annexin-V/PI flow cytometry). The class given is cell-based. Conditions: HCC827, 50 nM, 24 h. The procedure:
as §1

The test system of a further data set is JNK phosphorylation. The data set is described as follows: Western blot. The class given is cell-based. Conditions: FIG. 8A. The method, then: (§2) After incubation A549, H1975 and HCC827 cells with Proscillaridin A for 18 hours, cells were harvested and washed with cold 1× PBS. Then, cells were lysed with ice-cold RIPA lysis buffer with protease and phosphatase inhibitors added to extract the cell protein extraction. The supernatants were collected by centrifugation at 12,000 g, for 5 min. The quantitation of total protein extraction was measured by Bio-Rad DCTM protein assay kit (Bio-Rad, Philadelphia, Pa., USA). Then 35 μg of protein were loaded and electrophoretically separated on 8% SDS-PAGE gel and then transferred to Nitrocellulose (NC) membrane.
(§3) Membranes were blocked with 5% non-fat milk and […] containing 0.1% Tween-20 (TBST) for 1 h at room temperature. After 1 h, membranes were incubated with primary antibodies (1:1000 dilution) against β-actin, GAPDH, total/phosphor-EGFR, total/phosphor-AKT, total/phosphor-JNK, total/phosphor-AMPK, total/phosphor-ACC, phosphor-mTOR, IKK-α, Iκ-Bα, phosphor-NFκB-P65, Caspase-9, Caspase-7, BAX and Bcl-2 at 4° C. with gently shaking overnight. Membranes were washed with TBST for 3 times (5 min/time), and incubated with secondary fluorescent antibody (1:10000 dilutions) for 1 h at room temperature. Rewashing with TBST for 3 times (15 min/time), the stripes were visualized by LI-COR Odessy scanner (Belfast, Me., USA).
For orientation: A western blot detects proteins with antibodies after separation by electrophoresis.

In data set [6] the test system is acetyl-CoA carboxylase (ACC) phosphorylation. The data set is described as follows: Western blot. Conditions: FIG. 8A. Type of data set: cell-based. The procedure:
as §2, §3

Another data set has as its system AMPK phosphorylation. Description: Western blot. The class given is cell-based. Conditions: FIG. 8A. The method, then: as §2, §3
The test system of the next data set is NF-κB pathway. The data set is described as follows: Western blot. Type of data set: cell-based. Conditions: dose-dependent. The procedure: as §2, §3
In the next data set the test system is mTOR phosphorylation. Description: Western blot. The class given is cell-based. The settings on record: FIG. 8A. The procedure: as §2, §3
A further data set relates to DR4 expression. The data set is described as follows: Regular and quantitative RT-PCR. The class given is cell-based. The settings on record: 12 h treatment. The procedure: Cells were incubated with Proscillaridin A for 12 hours. Total RNA was then extracted from treated cells using a TRIzol reagent (Invitrogen, Carlsbad, Calif., USA) following the manufacturer's instructions and was used to prepare cDNA. Quantitative real-time PCR was performed with High-productivity Real-Time quantitative PCR ViiA™7 (Life Technologies).
The glyceraldehyde […] dehydrogenase (GAPDH) gene was used as the reference gene. All data were means of fold change of triplicate analysis and normalized with those of GAPDH.

Another data set has as its target Na^+/K^+ ATPase. The data set is described as follows: Na^+/K^+ ATPase enzyme activity assay. Type of data set: biochemical. The settings on record: in vitro, enzyme from porcine cerebral cortex. The method, then:
The enzymatic activity of Na^+/K^+ ATPase (purchased from Sigma as lyophilized powder from porcine cerebral cortex) was measured by colorimetric quantification of P, released during ATP hydrolysis. A previously published procedure was adapted with some modifications. Begin with incubating 10 μl of Na^+/K^+ ATPase (600 units/m1) with 2.5 μl of KCl/NaCl solution (45 mM KCl and 2 M NaCl) at 37° C. for 30 min with either 5 μl of DMSO (control) or 5 μl of P.A (in different indicated concentrations) in 67.5 μl of buffer (24 mM Tric HCl buffer with 0.68 mM ethylenediaminetetraacetic acid and 6.0 mM magnesium chloride, pH 7.8). ATP (5 μl of 80 mM solution) was then added, and the reaction mixture was incubated again at 37° C. for 15 min. Trichloroacetic acid (30 μl of 100% w/v) was then added to the reaction mixture followed by centrifugation for 5 min. Supernatant (50 μl aliquot) was transferred to a 96 well plated containing 100 μl of Taussky-Shorr reagent. The absorbance at 660 nm was read after incubation at RT for 5 min.

Data set [7] concerns A549, H1975 and HCC827 cells. The data set is described as follows: Colony-formation assay. The class given is cell-based. The settings on record: all three cell lines. The method, then: Colony-forming assay was performed as previously described. Briefly, About 300 cells were plated into every well of 6 -well plate with 2 ml of culture medium and grown at 37° C. with 5% CO2. After 48 h culture for cell adherence to the plate, rinsed with fresh medium, Proscillaridin A (with indicated different dosages) was added to the medium. 48 h later, the cells were washed twice with PBS and then incubated in drug-free medium. The medium was changed every 5 days. After culturing for additional 10 to 14 days, the medium was discarded and each dish was washed twice with PBS carefully. The cells were fixed with 3.7% Paraformaldehyde for 20 min and 0.2% crystal violet solution in 10% ethanol for 10 min. Excess stain was removed by washing repeatedly with PBS. All the procedures were done at room temperature. The plates can be stored at room temperature or at +4° C. for several months without any visible fading of the dye.

Data set [8] deals with PARP, Caspase-7, Caspase-9, AKT, BAX, Bcl-2. The data set is described as follows: Western blot of apoptosis-related proteins. Type of data set: cell-based. The settings on record: A549, H1975, HCC827. The procedure:
as §2, §3

Data set [9] concerns EGFR phosphorylation of tyrosine residue 1173 in H1975. Description: Western blot of EGFR activation. Type of data set: cell-based. The settings on record: H1975, 18 hours. The procedure: as §2, §3
The subject of data set [10] is EGFR phosphorylation of tyrosine residue 1173 in HCC827. Description: Western blot of EGFR activation. The class given is cell-based. The settings on record: HCC827, 18 hours. The procedure:
as §2, §3

The next data set deals with H358 cells. Description: MTT cytotoxicity assay. The class given is cell-based. The settings on record: H358, KRAS, 24 h. The procedure: (§4) Cells were seeded in a 96-well microplate with 3000-5000 cells/well confluence, and put into the incubator overnight for cells adhesion. Different concentrations of drug Proscillaridin A were added with Dimethyl sulfoxide (DMSO) as vehicle control. The microplates were incubated for further 24 h. Each dosage was repeated in triplicate. 10 μL of MTT (5 mg/mL) solution was added to each well. The plate was placed back into the incubator for 4 h. After that, 100 μL of resolved solution (10% SDS and 0.1 mM HCL) was added to each well.
(§5) Before dissolving the formazan crystals, the microplate was put back into the incubator for another 4 h. The absorbance of the plate was measured at 570 nm with reference 650 nm by a microplate reader (Tecan, Morrisville, N.C., USA). Cell viability was calculated by percentages of the absorbance of the treatment group divided by the absorbance of untreated group. At least three independent experiments were performed for data analysis and presentation.
In general terms: Tetrazolium assays rely on reduction of a dye to a coloured formazan, in cell work by metabolically active cells.

For a further data set, the system named is H2228 cells. Description: MTT cytotoxicity assay. The class given is cell-based. The settings on record: H2228, EML4-ALK, 24 h. The method, then:
as §4, §5

Data set [11] has as its system A549 cells. Description: MTT cytotoxicity assay. Type of data set: cell-based. Conditions: A549, EGFR wild type, 24 h. The method, then: as §4, §5
The subject of data set [12] is H1975 cells. Description: MTT cytotoxicity assay. The class given is cell-based. The settings on record: H1975, EGFR double mutant, 24 h. The procedure:
as §4, §5

In data set [13] the test system is CCD19-LU normal lung fibroblast cell line. Description: MTT cytotoxicity assay. Type of data set: cell-based. The method, then:
as §4, §5

Data set [14] relates to HCC827 cells. The data set is described as follows: MTT cytotoxicity assay. Type of data set: cell-based. The settings on record: HCC827, EGFR exon 19 deletion, 24 h. The procedure:
as §4, §5

Another data set has as its system HCC78 cells. Description: MTT cytotoxicity assay. Conditions: HCC78, SLC3482-ROS, 24 h. Type of data set: cell-based. The procedure: as §4, §5

Turning to `CC(=O)OCOC(=O)CN(CC(=O)OCOC(C)=O)c1ccccc1OCCOc1ccccc1N(CC(=O)OCOC(C)=O)CC(=O)OCOC(C)=O` [BAPTA/AM], the “apoptotic cells after co-treatment with Proscillaridin A” value in the data set with A549 and H1975 cells [1] (Ca^2+ chelator co-treatment, flow cytometry) is given as “significant decrease of apoptotic cells”.

As to `c1cc(-c2cnn3cc(-c4ccc(OCCN5CCCCC5)cc4)cnc23)ccn1` [Compound C], the “apoptotic cells after co-treatment with Proscillaridin A” value in the data set with A549 and H1975 cells [1] (AMPK inhibitor co-treatment, A549 and H1975) is “partially weakened the apoptotic cells”.

As for Proscillaridin A, the “cellular Ca^2+ level” value in the data set with A549 and H1975 cells [2] is “remarkably increases the in vitro Ca^2+ level”. In addition, the apoptotic cells entry in the data set with A549 cells [3] (A549, 50 nM, 24 h) is on record as “about 70%”; with H1975 cells [4] (H1975, 50 nM, 24 h) it was “about 70%”. The “concentration at which significant induction of apoptosis starts” value amounted to 12.5 nM in the data set with A549 cells [3] (A549, 24 h) and 25 nM in the data set on H1975 cells [4] (H1975, 24 h). In addition, the increase of apoptosis entry in the data set on HCC827 cells [5] was “about 10%”. Moreover, the “phosphorylation of JNK” value in the data set on JNK phosphorylation is “significantly activated the phosphorylation of JNK”. The “phosphorylation of ACC” value in [6] is “significantly induced the phosphorylation”. The “phosphorylation of AMPK” value in the data set on AMPK phosphorylation is recorded as “significantly induced the phosphorylation of AMPK”. Also, the NF-κB pathway activation result with NF-κB pathway is “significantly inhibited”. Also, the “phosphorylation of mTOR” value in the data set on mTOR phosphorylation is “inhibited the phosphorylation of mTOR”. Further, the DR4 gene expression result in the data set with DR4 expression is given as “significantly elevated”. In addition, it took 0.83 ± 0.3 nM to reach half-maximal inhibition on Na^+/K^+ ATPase (IC50). In addition, the “clonogenic growth (colony formation)” value in data set [7] is “can suppress clonogenic growth”. Moreover, in [8], the AKT activation result was “inhibited”. In addition, the BAX level result in data set [8] is given as “up-regulated”. Besides, the Bcl-2 level entry in data set [8] was “down-regulated”. Moreover, the “PARP, Caspase-7 and Caspase-9 cleavage” value in data set [8] was “cleaved and activated”. Also, the “EGFR activation (phosphorylation of tyrosine residue 1173)” value in [9] and in data set [10] was “inhibited the EGFR activation” throughout. Further, the CC50 with H358 cells is 25.8 ± 4.9 nM; in the data set on H2228 cells, 23.6 ± 5.4 nM; in the data set on A549 cells [11], 14 ± 2.8 nM; with H1975 cells [12], 15 ± 3.6 nM; in [13] (CCD19-LU normal fibroblast cell, 24 h), over 400 nM; in the data set with HCC827 cells [14], 13.9 ± 1.8 nM. In addition, the CC50 in the data set with HCC78 cells is 37.6 ± 9.9 nM. In addition, in data set [13] (CCD19-LU, 30-folds higher concentrations of the CC50 in EGFR-dependent NSCLC cells), the “inhibition of cell proliferation in normal lung fibroblast cells” value was “no significant inhibitory effect”.

These data come from patent US20180348222A1, “BUFADIENOLIDE FOR TREATMENT OF NON-SMALL CELL LUNG CANCER” (priority 2017, published 2018).
